Tests used:
Format in all cases: functional
Malme-3M = experiment: Cytotoxicity against human MALME-3M cells assessed as growth inhibition at 10 uM after 48 hrs by SRB assay; details: read-out: GI
[1] = Cytotoxicity against human Caki1 cells assessed as growth inhibition at 10 uM after 48 hrs by SRB assay; details: CAKI-1, 48 h, read-out: GI
SK-MEL-5 = experiment: Cytotoxicity against human SK-MEL-5 cells assessed as growth inhibition at 10 uM after 48 hrs by SRB assay; details: SK-MEL-5, 48 h, read-out: GI
786-0 = experiment: Cytotoxicity against human 786-0 cells assessed as growth inhibition at 10 uM after 48 hrs by SRB assay; details: 786-0, 48 h, read-out: GI
[2] = Cytotoxicity against human RXF393 cells assessed as growth inhibition at 10 uM after 48 hrs by SRB assay; details: RXF 393, 48 h, read-out: GI
[3] = Cytotoxicity against human MOLT4 cells assessed as growth inhibition at 10 uM after 48 hrs by SRB assay; details: MOLT-4, 48 h, read-out: GI
[4] = Cytotoxicity against human OVCAR1 cells assessed as growth inhibition at 10 uM after 48 hrs by SRB assay; details: OVCAR1, 48 h, read-out: GI
SR = experiment: Cytotoxicity against human SR cells assessed as growth inhibition at 10 uM after 48 hrs by SRB assay; details: read-out: GI
[5] = Cytotoxicity against human SW620 cells assessed as growth inhibition at 10 uM after 48 hrs by SRB assay; details: SW-620, 48 h, read-out: GI
NCI-H23 = experiment: Cytotoxicity against human NCI-H23 cells assessed as growth inhibition at 10 uM after 48 hrs by SRB assay; details: NCI-H23, 48 h, read-out: GI
[6] = Cytotoxicity against human OVCAR8 cells assessed as growth inhibition at 10 uM after 48 hrs by SRB assay; details: OVCAR-8, 48 h, read-out: GI
[7] = Cytotoxicity against human HL-60(TB) cells assessed as growth inhibition at 10 uM after 48 hrs by SRB assay; details: HL-60, 48 h, read-out: GI
ACHN = experiment: Cytotoxicity against human ACHN cells assessed as growth inhibition at 10 uM after 48 hrs by SRB assay; details: read-out: GI
MDA-MB-435 = experiment: Cytotoxicity against human MDA-MB-435 cells assessed as growth inhibition at 10 uM after 48 hrs by SRB assay; details: MDA-MB-435, 48 h, read-out: GI
[8] = Cytotoxicity against human HCT116 cells assessed as growth inhibition at 10 uM after 48 hrs by SRB assay; details: HCT-116, 48 h, read-out: GI
[9] = Cytotoxicity against human OVCAR3 cells assessed as growth inhibition at 10 uM after 48 hrs by SRB assay; details: OVCAR-3, 48 h, read-out: GI
KM12 = experiment: Cytotoxicity against human KM12 cells assessed as growth inhibition at 10 uM after 48 hrs by SRB assay; details: KM12, 48 h, read-out: GI
SK-MEL-28 = experiment: Cytotoxicity against human SK-MEL-28 cells assessed as growth inhibition at 10 uM after 48 hrs by SRB assay; details: SK-MEL-28, 48 h, read-out: GI
NCI-H226 = experiment: Cytotoxicity against human NCI-H226 cells assessed as growth inhibition at 10 uM after 48 hrs by SRB assay; details: NCI-H226, 48 h, read-out: GI
[10] = Cytotoxicity against human HOP92 cells assessed as growth inhibition at 10 uM after 48 hrs by SRB assay; details: HOP-92, 48 h, read-out: GI
[11] = Cytotoxicity against human PC3 cells assessed as growth inhibition at 10 uM after 48 hrs by SRB assay; details: PC-3, 48 h, read-out: GI
T47D = experiment: Cytotoxicity against human T47D cells assessed as growth inhibition at 10 uM after 48 hrs by SRB assay; details: read-out: GI
MDA-MB-468 = experiment: Cytotoxicity against human MDA-MB-468 cells assessed as growth inhibition at 10 uM after 48 hrs by SRB assay; details: MDA-MB-468, 48 h, read-out: GI
CCRF-CEM = experiment: Cytotoxicity against human CCRF-CEM cells assessed as growth inhibition at 10 uM after 48 hrs by SRB assay; details: read-out: GI
[12] = Cytotoxicity against human OVCAR4 cells assessed as growth inhibition at 10 uM after 48 hrs by SRB assay; details: OVCAR-4, 48 h, read-out: GI
M14 = experiment: Cytotoxicity against human M14 cells assessed as growth inhibition at 10 uM after 48 hrs by SRB assay; details: M14, 48 h, read-out: GI
[13] = Cytotoxicity against human UACC62 cells assessed as growth inhibition at 10 uM after 48 hrs by SRB assay; details: UACC-62, 48 h, read-out: GI
[14] = Cytotoxicity against human LOXIMVI cells assessed as growth inhibition at 10 uM after 48 hrs by SRB assay; details: LOX IMVI, read-out: GI
[15] = Cytotoxicity against human UACC257 cells assessed as growth inhibition at 10 uM after 48 hrs by SRB assay; details: UACC-257, 48 h, read-out: GI
MDA-MB-231 = experiment: Cytotoxicity against human MDA-MB-231 cells assessed as growth inhibition at 10 uM after 48 hrs by SRB assay; details: MDA-MB-231, 48 h, read-out: GI
[16] = Cytotoxicity against human SNB19 cells assessed as growth inhibition at 10 uM after 48 hrs by SRB assay; details: SNB-19, 48 h, read-out: GI
[17] = Cytotoxicity against human SF268 cells assessed as growth inhibition at 10 uM after 48 hrs by SRB assay; details: SF-268, 48 h, read-out: GI
SK-MEL-2 = experiment: Cytotoxicity against human SK-MEL-2 cells assessed as growth inhibition at 10 uM after 48 hrs by SRB assay; details: SK-MEL-2, 48 h, read-out: GI
[18] = Cytotoxicity against human UO31 cells assessed as growth inhibition at 10 uM after 48 hrs by SRB assay; details: UO-31, 48 h, read-out: GI
A549 = experiment: Cytotoxicity against human A549 cells assessed as growth inhibition at 10 uM after 48 hrs by SRB assay; details: A549, 48 h, read-out: GI
[19] = Cytotoxicity against human NCI-ADR-RES cells assessed as growth inhibition at 10 uM after 48 hrs by SRB assay; details: read-out: GI
[20] = Cytotoxicity against human SNB75 cells assessed as growth inhibition at 10 uM after 48 hrs by SRB assay; details: SNB-75, 48 h, read-out: GI
[21] = Cytotoxicity against human HCT15 cells assessed as growth inhibition at 10 uM after 48 hrs by SRB assay; details: HCT-15, 48 h, read-out: GI
K562 = experiment: Cytotoxicity against human K562 cells assessed as growth inhibition at 10 uM after 48 hrs by SRB assay; details: K562, 48 h, read-out: GI
A498 = experiment: Cytotoxicity against human A498 cells assessed as growth inhibition at 10 uM after 48 hrs by SRB assay; details: A498, 48 h, read-out: GI
NCI-H522 = experiment: Cytotoxicity against human NCI-H522 cells assessed as growth inhibition at 10 uM after 48 hrs by SRB assay; details: NCI-H522, 48 h, read-out: GI
[22] = Cytotoxicity against human BT549 cells assessed as growth inhibition at 10 uM after 48 hrs by SRB assay; details: BT-549, 48 h, read-out: GI
[23] = Cytotoxicity against human RPMI8226 cells assessed as growth inhibition at 10 uM after 48 hrs by SRB assay; details: RPMI-8226, 48 h, read-out: GI

Work on `COc1cc(NC(=O)CSc2nc3ccc(C)cc3c(=O)n2-c2ccccc2)cc(OC)c1OC` yielded an inhibition of growth at 10 µM (Malme-3M) of 10%, an inhibition of growth at 10 µM [1] of 12% and an inhibition of growth at 10 µM (SK-MEL-5) of 23%. For the same molecule, the inhibition of growth at 10 µM (786-0) was 11%, the inhibition of growth at 10 µM [2] was 14% and the inhibition of growth at 10 µM [3] was 41%. For the same molecule, the inhibition of growth at 10 µM [4] was 11%, the inhibition of growth at 10 µM (SR) was 58% and the inhibition of growth at 10 µM [5] was 13%. The inhibition of growth at 10 µM (NCI-H23) was 16%, the inhibition of growth at 10 µM [6] was 13% and the inhibition of growth at 10 µM [7] was 11%. The inhibition of growth at 10 µM (ACHN) was 10%, the inhibition of growth at 10 µM (MDA-MB-435) was 53% and the inhibition of growth at 10 µM [8] was 13%. The inhibition of growth at 10 µM [9] was 16%, the inhibition of growth at 10 µM (KM12) was 25% and the inhibition of growth at 10 µM (SK-MEL-28) was 17%. It also gave an inhibition of growth at 10 µM (NCI-H226) of 18%, an inhibition of growth at 10 µM [10] of 51% and an inhibition of growth at 10 µM [11] of 18%. The inhibition of growth at 10 µM (T47D) was 19%, the inhibition of growth at 10 µM (MDA-MB-468) was 31% and the inhibition of growth at 10 µM (CCRF-CEM) was 17%. The inhibition of growth at 10 µM [12] was 32%, the inhibition of growth at 10 µM (M14) was 21% and the inhibition of growth at 10 µM [13] was 23%. It also gave an inhibition of growth at 10 µM [14] of 25%, an inhibition of growth at 10 µM [15] of 18% and an inhibition of growth at 10 µM (MDA-MB-231) of 23%. The inhibition of growth at 10 µM [16] was 13%, the inhibition of growth at 10 µM [17] was 14% and the inhibition of growth at 10 µM (SK-MEL-2) was 14%. The inhibition of growth at 10 µM [18] was 49%, the inhibition of growth at 10 µM (A549) was 17% and the inhibition of growth at 10 µM [19] was 25%. The inhibition of growth at 10 µM [20] was 43%, the inhibition of growth at 10 µM [21] was 19% and the inhibition of growth at 10 µM (K562) was 13%. It also gave an inhibition of growth at 10 µM (A498) of 38%, an inhibition of growth at 10 µM (NCI-H522) of 32% and an inhibition of growth at 10 µM [22] of 21%. The inhibition of growth at 10 µM [23] was 24%.

— ChEMBL document CHEMBL3784933, “Synthesis and antitumor evaluation of trimethoxyanilides based on 4(3H)-quinazolinone scaffolds” (2016)
